Results on twelve compounds are retold here after patent US10641781B2, “Method, composition and device for sampling natriuretic peptides in a biological fluid” (CRIMSON U.S. ASSETS, LLC, priority 2008, dated 2020).

For data set [1] the following is noted: weak basic conditions (pH 8-9); cited from earlier work.
The next data set concerns BNP1-32 hydrolysis. As to the kind of experiment: BNP1-32 hydrolysis in heparin plasma treated with protease inhibitors, room temperature, MSIA. The format is biochemical, human. As to conditions: for effect on BNP hydrolysis: BNP1-32 10 ng/mL. The text has this:
(§1) In order to observe, characterize and identify the BNP hydrolysis products a Mass Spectrometric Immunoassay (MSIA) was developed and employed in the analysis of BNP. This technique is broadly described in, e.g., Nelson et al. (1995) Anal. Chem. 67, 1153-1158; Tubbs et al. (2001) Anal. Biochem. 289, 26-35; Kiernan et al. (2002) Anal. Biochem. 301, 49-56; Niederkofler et al. (2003) J. Lipid Res. 44, 630-639 and U.S. Pat. Nos. 6,783,672; 6,974,704; 7,083,723; 7,083,724; 7,087,163; 7,087,164; 7,087,165; and 7,087,163. The basic methodology is described in the context of BNP although the technique is also applicable to ANP and other peptides of interest.
(§2) Briefly, MSIA entails the use of affinity capture, to extract BNP and many of its' hydrolysis products for mass spectrometric detection, to observe and identify products of BNP hydrolysis. Therefore, synthesized BNP1-32 was added to room temperature plasma (from blood collected in heparinized blood collection tubes). At a several times post-spiking BNP1-32 into the plasma, aliquots of the spiked plasma were analyzed to monitor the progress of BNP1-32 hydrolysis. The results of performing a series of analyses on aliquots removed and analyzed every hour for up to six hours post-addition of BNP1-32 at 100 ng/mL are shown in FIG. 2. […] The last two species are indistinguishable in the chart due to similar amino acid compositions. […]
Next, the individual protease inhibitors, including some of those included in protease inhibitor cocktail set III (EMD) were tested using the protocols described supra. Briefly, aliquots of heparin plasma were treated with each one of the protease inhibitors. To each aliquot of plasma, BNP1-32 was added at 10 ng/mL and incubated at room temperature. Aliquots were sequentially removed and analyzed for BNP hydrolysis.
Briefly, aliquots of heparin plasma were treated with each one of these protease inhibitors. To each aliquot of plasma, BNP1-32 was added at 10 ng/mL and incubated at room temperature. Aliquots were sequentially removed and analyzed for BNP hydrolysis.
Further testing added to the list of inexpensive protease inhibitors effective in combination with AEB SF in avoiding adducts starting with benzamidine hydrochloride (Calbiochem catalog no. 199001). […] Briefly, aliquots of heparin plasma were treated with the protease inhibitor. To each aliquot of plasma, BNP1-32 was added at 10 ng/mL and incubated at room temperature. Aliquots were sequentially removed and analyzed for BNP hydrolysis.
In addition, PPACK I dihydrochloride (Calbiochem catalog no. 520222) and PPACK II trifluoroacetate salt (Calbiochem catalog no. 520219) were also tested at a concentration of 1 mM each. […]

For data set [2], the system named is BNP hydrolysis. As to the kind of experiment: BNP stability in plasma stored at -70 C, MSIA. Format: biochemical, human. As to conditions: tested on day of collection and six months later. As for the experimental part:
The limited proteolysis prior to the addition of the protease inhibitors is preserved in the sample. The sampled plasma was assayed for the presence of BNP fragments on the day of collection and then six month later. […] This may reflect the presence of metalloproteinases in heparinized blood.
To examine this, BNP peptides corresponding to those previously identified as products resulting from the hydrolysis of BNP1-32 were synthesized and added to EDTA plasma treated with 10 mM AEBSF and 20 mM Benzamidine. An aliquot of the sample was analyzed for the added BNP peptides soon after the addition of the peptides to the plasma, while the rest of the plasma was stored at −70° C. for 7 weeks. After 7 weeks of storage the plasma was removed from the freezer, thawed and analyzed for the existence of the added BNP peptides.

Data set [3] has as its system BNP hydrolysis. As to the kind of experiment: BNP hydrolysis in EDTA versus heparin plasma at room temperature, MSIA. Format: biochemical, human. As to conditions: plasma spiked with BNP1-32, room temperature, aliquots at 1 hour and 2 hours. As for the experimental part:
Blood from a single individual was collected in both heparin and EDTA blood collection tubes. The collected blood was centrifuged to remove cellular components and the supernatant (plasma) was collected. To the EDTA and heparin plasma, BNP1-32 was added and incubated at room temperature with aliquots removed for analysis of BNP hydrolysis at 1 hour and 2 hours.

The subject of the next data set is proteolysis of BNP. As to conditions: sampled blood or plasma; cited from earlier work.
The conditions of data set [4]: cited from earlier work.
A short description of data set [5]: Time course of BNP1-32 hydrolysis in plasma without inhibitor, by mass spectrometric immunoassay (MSIA). The format is in vitro ADME, human. As to conditions: heparin plasma, no inhibitor, room temperature, BNP1-32 at 100 ng/mL, four hours after addition.
From the text: as §1, §2

The conditions of data set [6]: after separation of plasma from whole blood; cited from earlier work.

Entries after “also recorded” stand apart in the source; their conditions may differ. Where a name gives a salt, the structure may show the parent alone. Where a SMILES comes first, the peptide text is derived from it. [ ]: non-standard residue; d: D form. The star is where a group is joined. Sta = CC(C)C[C@H](N)[C@@H](O)CC(=O)O; Isovaleryl = CC(C)CC(=O)*; CH2Cl = ClC* Bounds are passed on as bounds.

In the case of `Cl.NCCc1ccc(S(=O)(=O)F)cc1` [AEBSF, 4-(2-Aminoethyl) benzenesulfonyl fluoride hydrochloride], the “hydrolysis of the inhibitor” value in data set [1] is given as “slow hydrolysis”. Besides, the “effect on BNP hydrolysis” value with BNP1-32 hydrolysis (inhibitor at 1 mM, hydrochloride) is given as “slowed the hydrolysis of BNP; also recorded: reduced BNP proteolysis”; with BNP1-32 hydrolysis (inhibitor at 2.5 mM, hydrochloride), “almost completely inhibited the hydrolysis of BNP; also recorded: reduced BNP proteolysis”; in the data set on BNP1-32 hydrolysis (inhibitor at 5 mM, hydrochloride), “almost completely inhibited the hydrolysis of BNP; also recorded: reduced BNP proteolysis”.
With `N=C(N)c1ccccc1` [Benzamidine hydrochloride, Benzamidine], the “effectiveness in slowing BNP hydrolysis relative to other inhibitors” value in the data set with BNP1-32 hydrolysis (1 mM) is “better than PPACK I and PPACK II, but it was not as effective as AEBSF”. For the same compound, the “effect on BNP hydrolysis” value with BNP1-32 hydrolysis (inhibitor at 1 mM) is listed as “slowed the hydrolysis of BNP”; with BNP1-32 hydrolysis (inhibitor at 1 mM, listed as Benzamidine) it was “reduced BNP proteolysis”.
Turning to `CC(C)C[C@H](NC(=O)[C@@H](O)[C@H](N)Cc1ccccc1)C(=O)O` [Bestatin], in the data set on BNP1-32 hydrolysis (inhibitor at 0.5 mM), the “effect on BNP hydrolysis” value was “little or no effect on BNP proteolysis; also recorded: did not appreciably prevent the hydrolysis of BNP”.
As to `CC(C)C[C@H](NC(=O)[C@H]1O[C@@H]1C(=O)O)C(=O)NCCCCN=C(N)N` [E64], the “effect on BNP hydrolysis” value in the data set on BNP1-32 hydrolysis (inhibitor at 1 mM) was “little or no effect on BNP proteolysis; also recorded: did not appreciably prevent the hydrolysis of BNP”.
Turning to `O=C([O-])CN(CCN(CC(=O)[O-])CC(=O)O)CC(=O)[O-].[Na+].[Na+].[Na+]` [EDTA, ethylenediamine tetracetic acid], the “BNP hydrolysis in EDTA plasma without protease inhibitors” value in the data set with BNP hydrolysis [2] is “the hydrolysis stops at the formation of the BNP3-32; also recorded: proteolysis of BNP1-32 leading to the formation of BNP3-32”. In addition, the “effect of anti-coagulant on BNP hydrolysis” value with BNP hydrolysis [3] is recorded as “BNP hydrolysis stops with the formation of the BNP3-32; also recorded: reduce BNP hydrolysis”.
Consider `CC(=O)N[C@@H](CC(C)C)C(=O)N[C@@H](CC(C)C)C(=O)N[C@H](C=O)CCCNC(=N)N` [Leupeptin], for which the figures for the “effect on BNP hydrolysis” value in the data set on BNP1-32 hydrolysis (inhibitor at 0.1 mM) and in the data set on BNP1-32 hydrolysis (inhibitor at 1 mM) were “slowed the hydrolysis of BNP” and “slow BNP proteolysis”, respectively.
Consider `NC(N)=NCCC[C@H](NC(=O)[C@H](Cc1ccccc1)NC(=O)[C@H](N)Cc1ccccc1)C(=O)CCl` [PPACK II] (H-[dF]-Phe-Arg-CH2Cl), for which the “effect on BNP hydrolysis” value in the data set on BNP1-32 hydrolysis (inhibitor at 1 mM) was “slowed the rate of BNP hydrolysis; also recorded: reduced BNP proteolysis”.
`Cl.Cl.NC(N)=NCCC[C@H](NC(=O)[C@@H]1CCCN1C(=O)[C@H](N)Cc1ccccc1)C(=O)CCl` [PPACK I]: the “effect on BNP hydrolysis” value in the data set on BNP1-32 hydrolysis (inhibitor at 1 mM) is reported as “slowed the rate of BNP hydrolysis; also recorded: reduced BNP proteolysis”.
As for `NC(N)=NCCC[C@H](NC(=O)[C@@H]1CCCN1C(=O)[C@H](N)Cc1ccccc1)C(=O)CCl` [PPACK], in the data set with proteolysis of BNP, the “effectiveness in arresting proteolysis of BNP” value is reported as “most effective in arresting proteolysis of BNP”.
With `CC(C)CC(=O)N[C@H](C(=O)N[C@H](C(=O)N[C@@H](CC(C)C)[C@@H](O)CC(=O)N[C@@H](C)C(=O)N[C@@H](CC(C)C)[C@@H](O)CC(=O)O)C(C)C)C(C)C` [Pepstatin A] (Isovaleryl-VV[Sta]A[Sta]-OH), in the data set on BNP1-32 hydrolysis (inhibitor at 0.1 mM), the “effect on BNP hydrolysis” value is given as “little or no effect on BNP proteolysis; also recorded: did not appreciably prevent the hydrolysis of BNP”.
Regarding “BNP1-32: 32-amino acid B-type natriuretic peptide; synthesized BNP1-32 spiked into plasma”, the “half-life (t1/2) in vivo” value in data set [4] is “approximately 20 minutes”. Besides, the “hydrolysis of BNP1-32 in plasma” value in data set [5] was “all of the BNP1-32 appears to have been processed into smaller peptides”. Also, the “time within which BNP is proteolyzed in vitro” value in data set [6] is given as at most 24 h.
As to Heparin, the figures for the “effect of anti-coagulant on BNP hydrolysis” value in the data set on BNP hydrolysis [3] and in the data set with BNP hydrolysis [3] (listed as heparin) were “relatively ineffective in preventing BNP proteolysis” and “progress towards the production of BNP hydrolysis products smaller than the BNP3-32”, respectively.
